Test results published in patent publication US7049332B2, “HIV inhibiting N-aminoimidazole derivatives” (K. U. Leuven Research & Development, priority 2001, dated 2006).
Converted amounts (≈) assume the structure as drawn.

Experiments:
[1] = Cytotoxicity in mock-infected MT-4 cells (MTT); type: cell-based; settings: human; mock-infected MT-4 cells, absorbance reduced by 50%, MTT
Experimental: A rapid and automated assay procedure was used for the in vitro evaluation of anti-HIV agents. An HTLV-1 transformed T4-cell line MT-4, which was previously shown to be highly susceptible to and permissive for HIV infection, served as the target cell line. Inhibition of the HIV-induced cytopathogenic effect was used as the end point. The viabitlity of both HIV-and mock-infected cells was assessed spectrophotometrically via in situ reduction of 3-(4,5-dimethylthiazol-2-yl)-2,5-diphenyltetrazolium bromide (MTT). The 50% cytotoxic concentration (CC50 in μg/ml) was defined as the concentration of compound that reduced the absorbance of the mock-infected control sample by 50%. The percent protection achieved by the compound in HIV-infected cells was calculated by the following formula: Examples of inhibition of cell proliferation by particular compounds of formula (I) can be found by looking at the respective CC50 values in the MT-4 cell line. Cells: MT-4 cells (Miyoshi et al., 1982) were grown and maintained in RPMI 1640 medium supplemented with 10% heat-inactivated fetal calf serum, 2 mM […], 0.1% sodium bicarbonate, and 20 œg of gentamicin per ml.

[2] = system: HIV-1 (NL4.3 WT); experiment: Inhibition of HIV-induced cytopathogenic effect in MT-4 cells (MTT), HIV-1; type: cell-based; settings: for IC50: Human immunodeficiency virus 1, MT4, 50% protection against HIV-induced cytopathogenic effect, MT-4 cells, MTT; for HIV-1 (NL4.3 WT) SI: selectivity index = ratio of CC50 to IC50, HIV-1
Experimental: (§1) A rapid and automated assay procedure was used for the in vitro evaluation of anti-HIV agents. An HTLV-1 transformed T4-cell line MT-4, which was previously shown to be highly susceptible to and permissive for HIV infection, served as the target cell line. Inhibition of the HIV-induced cytopathogenic effect was used as the end point. The viabitlity of both HIV-and mock-infected cells was assessed spectrophotometrically via in situ reduction of 3-(4,5-dimethylthiazol-2-yl)-2,5-diphenyltetrazolium bromide (MTT). The 50% cytotoxic concentration (CC50 in μg/ml) was defined as the concentration of compound that reduced the absorbance of the mock-infected control sample by 50%. The percent protection achieved by the compound in HIV-infected cells was calculated by the following formula:
(§2) [formula] whereby (ODT)HIV is the optical density measured with a given concentration of the test compound in HIV-infected cells; (ODC)HIV is the optical density measured for the control untreated HIV-infected cells; (ODC)MOCK is the optical density measured for the control untreated mock-infected cells; all optical density values were determined at 540 nm. The dose achieving 50% protection according to the above formula was defmed as the 50% inhibitory concentration (IC50 in μg/ml). The ratio of CC50 to IC50 was defined as the selectivity index (SI).
(§3) Cells: MT-4 cells (Miyoshi et al., 1982) were grown and maintained in RPMI 1640 medium supplemented with 10% heat-inactivated fetal calf serum, 2 mM 1-glutamine, 0.1% sodium bicarbonate, and 20 œg of gentamicin per ml.
(§4) Viruses: The HIV-1(NL4.3) strain (Adachi et al., 1986) is a molecular clone obtained from the National Institutes of Health (Bethesda, Md.). The HIV-2(ROD) (Barr,-Sinoussi et al., 1983) stock was obtained from culture supernatant of HIV-2 infected cell lines.

[3] = system: HIV-2 (ROD); experiment: Inhibition of HIV-induced cytopathogenic effect in MT-4 cells (MTT), HIV-2; type: cell-based; settings: for IC50: Human immunodeficiency virus 2, MT4, 50% protection against HIV-induced cytopathogenic effect, MT-4 cells, MTT; for HIV-2 (ROD) SI: selectivity index = ratio of CC50 to IC50, HIV-2
Experimental: as §1, §2, §3, §4

Row | melting point | Compound | also measured
1 | 218 °C | Cc1ncn(Nc2cccc(Cl)c2)c1-c1ccccc1 [Compound 13.01, 1-(3-Chlorophenylamino)-4-methyl-5-phenyl-1H-imidazole] | CC50 [1]: 3.25 µg/mL (≈ 11.5 µM); IC50 [2]: 0.5 µg/mL (≈ 1.76 µM); HIV-1 (NL4.3 WT) SI [2]: 6.0; IC50 [3]: 0.5 µg/mL (≈ 1.76 µM); HIV-2 (ROD) SI [3]: 6.9
2 | 180 °C | Clc1cccc(Nn2cnc3c2CCCC3)c1 [Compound 13.04, 1-(3-Chlorophenylamino)-4,5,6,7-tetrahydro-1H-benzimidazole] | 
3 | 154 to 156 °C | Cc1cc(C)cc(Nn2cnc(C)c2-c2ccccc2)c1 [Compound 13.13, 1-(3,5-Dimethylphenylamino)-4-methyl-5-phenyl-1H-imidazole] | 
4 | 116 to 118 °C | CCc1[nH]c(=S)n(Nc2cccc(Cl)c2)c1-c1ccccc1 [Compound 9.24, 1-(3-Chlorophenylamino)-2,3-dihydro-4-ethyl-5-phenyl-1H-imidazole-2-thione] | 
5 | 196 °C | Cc1[nH]c(=S)n(Nc2cccc(Cl)c2)c1-c1cccc(Br)c1 [Compound 9.05, 5-(3-Bromophenyl)-1-(3-chlorophenylamino)-2,3-dihydro-4-methyl-1H-imidazole-2-thione] | CC50 [1]: 22.9 µg/mL (≈ 58 µM); IC50 [2]: 2.2 µg/mL (≈ 5.57 µM); HIV-1 (NL4.3 WT) SI [2]: 10.4; IC50 [3]: 4.1 µg/mL (≈ 10.4 µM); HIV-2 (ROD) SI [3]: 5.5
6 | 148 °C | S=c1[nH]c2c(n1Nc1cccc(Cl)c1)CCCC2 [Compound 9.11, 1-(3-Chlorophenylamino)-2,3,4,5,6,7-hexahydro-1H-benzimidazole-2-thione] | CC50 [1]: 34 µg/mL (≈ 122 µM); IC50 [2]: 13.1 µg/mL (≈ 46.8 µM); HIV-1 (NL4.3 WT) SI [2]: 2.6; IC50 [3]: > 34 µg/mL; HIV-2 (ROD) SI [3]: <1
7 | 228 °C | Cc1[nH]c(=S)n(Nc2ccc(F)cc2)c1-c1ccccc1 [Compound 9.03, 2,3-Dihydro-1-(4-fluorophenylamino)-4-methyl-5-phenyl-1H-imidazole-2-thione] | 
8 | 228 °C | Cc1ccc(Nn2c(-c3ccccc3)c(C)[nH]c2=S)cc1C [Compound 9.13, 2,3-Dihydro-1-(3,4-dimethylphenylamino)-4-methyl-5-phenyl-1H-imidazole-2-thione] | CC50 [1]: 17.9 µg/mL (≈ 57.8 µM); IC50 [2]: 1.1 µg/mL (≈ 3.55 µM); HIV-1 (NL4.3 WT) SI [2]: 16.3; IC50 [3]: > 17.9 µg/mL; HIV-2 (ROD) SI [3]: <1
9 | 166 to 168 °C | Cc1[nH]c(=S)n(Nc2cccc(Cl)c2)c1C(=O)O [Compound 9.28, 1-(3-Chlorophenylamino)-2,3-dihydro-5-hydroxycarbonyl-4-methyl-1H-imidazole-2-thione] | 
10 | 215 to 217 °C | Cc1[nH]c(=S)n(Nc2cccc(Cl)c2)c1-c1ccccc1 [Compound 9.01, 1-(3-Chlorophenylamino)-2,3-dihydro-4-methyl-5-phenyl-1H-imidazole-2-thione] | CC50 [1]: 21.5 µg/mL (≈ 68.1 µM); IC50 [2]: 2.8 µg/mL (≈ 8.87 µM); HIV-1 (NL4.3 WT) SI [2]: 7.6; IC50 [3]: 2.6 µg/mL (≈ 8.23 µM); HIV-2 (ROD) SI [3]: 8.4
11 | 164 °C | Cc1ncn(Nc2cccc(Cl)c2)c1-c1cccc(Br)c1 [Compound 13.02, 5-(3-Bromophenyl)-1-(3-chlorophenylamino)-4-methyl-1H-imidazole] | CC50 [1]: 3.13 µg/mL (≈ 8.63 µM); IC50 [2]: 0.5 µg/mL (≈ 1.38 µM); HIV-1 (NL4.3 WT) SI [2]: 6.7; IC50 [3]: 0.3 µg/mL (≈ 0.827 µM); HIV-2 (ROD) SI [3]: 9.5
12 | 178 °C | Cc1ncn(Nc2ccccc2)c1C [Compound 13.06, 4,5-Dimethyl-1-phenylamino-1H-imidazole] | 
13 | 194 to 196 °C | COC(=O)c1c(C)[nH]c(=S)n1Nc1cccc(Cl)c1 [Compound 9.27, 1-(3-Chlorophenylamino)-2,3-dihydro-5-methoxycarbonyl-4-methyl-1H-imidazole-2-thione] | 
14 | 130 °C | Cc1nc(SCc2ccccc2)n(Nc2cccc(Cl)c2)c1-c1ccccc1 | 
15 | 146 °C | Cc1ncn(Nc2cccc(Cl)c2)c1C [Compound 13.07, 1-(3-Chlorophenylamino)-4,5-dimethyl-1H-imidazole] | 
16 | 226 °C | COc1ccc(-c2c(C)[nH]c(=S)n2Nc2cccc(Cl)c2)cc1 [Compound 9.09, 2,3-Dihydro-1-(3-chlorophenylamino)-5-(4-methoxyphenyl)-4-methyl-1H-imidazole-2-thione] | 
17 | 156 to 158 °C | COc1cccc(Nn2cnc(C)c2-c2ccccc2)c1 [Compound 13.14, 1-(3-Methoxyphenylamino)-4-methyl-5-phenyl-1H-imidazole] | 

Row | melting point | Compound | also measured
18 | 238 °C | Cc1c(-c2ccccc2)[nH]c(=S)n1Nc1cccc(Cl)c1 [Compound 9.10, 1-(3-Chlorophenylamino)-2,3-dihydro-5-methyl-4-phenyl-1H-imidazole-2-thione] | 
19 | 215 °C | CSc1nc(C)c(-c2ccccc2)n1Nc1cccc(Cl)c1 | 
20 | 230 °C | Cc1cccc(Nn2c(C)c(C)[nH]c2=S)c1 [Compound 9.22, 2,3-Dihydro-4,5-dimethyl-1-(3-methylphenylamino)-1H-imidazole-2-thione] | 
21 | 217 to 219 °C | Cc1[nH]c(=S)n(Nc2ccccc2)c1C [Compound 9.21, 2,3-Dihydro-4,5-dimethyl-1-(phenylamino)-1H-imidazole-2-thione] | 
22 | 225 °C | Cc1[nH]c(=S)n(Nc2cccc(Cl)c2)c1-c1ccc(Cl)cc1 [Compound 9.08, 5-(4-Chlorophenyl)-1-(3-chlorophenylamino)-2,3-dihydro-4-methyl-1H-imidazole-2-thione] | 
23 | 212 to 214 °C | Cc1[nH]c(=S)n(Nc2ccc(Cl)cc2)c1-c1ccccc1 [Compound 9.04, 1-(4-Chlorophenylamino)-2,3-dihydro-4-methyl-5-phenyl-1H-imidazole-2-thione] | 
24 | 144 °C | Cc1cccc(Nn2cnc(C)c2C)c1 [Compound 13.08, 4,5-Dimethyl-1-(3-methylphenylamino)-1H-imidazole] | 
25 | 138 to 140 °C | Cc1cccc(Nn2cnc(C)c2-c2cccc(C#N)c2)c1 [Compound 13.16, 5-(3-Cyanophenyl)-4-methyl-1-(3-methylphenylamino)-1H-imidazole] | 
26 | 178 to 180 °C | S=c1[nH]c(-c2ccccc2)c(-c2ccccc2)n1Nc1cccc(Cl)c1 [Compound 9.26, 1-(3-Chlorophenylamino)-2,3-dihydro-4,5-diphenyl-1H-imidazole-2-thione] | 
27 | 158 to 160 °C | CCc1ncn(Nc2cccc(C)c2)c1-c1ccccc1 [Compound 13.11, 4-Ethyl-1-(3-methylphenylamino)-5-phenyl-1H-imidazole] | 
28 | 160 to 162 °C | COC(=O)c1[nH]c(=S)n(Nc2cccc(Cl)c2)c1C [Compound 9.29, 1-(3-Chlorophenylamino)-2,3-dihydro-4-methoxycarbonyl-5-methyl-1H-imidazole-2-thione] | 
29 | 220 to 222 °C | Cc1cccc(Nn2c(-c3ccccc3)c(C(C)C)[nH]c2=S)c1 [Compound 9.23, 2,3-Dihydro-4-isopropyl-1-(3-methylphenylamino)-5-phenyl-1H-imidazole-2-thione] | 
30 | 234 °C | Cc1[nH]c(=S)n(Nc2cccc(Cl)c2)c1C [Compound 9.20, 2,3-Dihydro-4,5-dimethyl-1-(3-chlorophenylamino)-1H-imidazole-2-thione] | 
31 | 164 to 166 °C | COC(=O)c1cccc(-c2c(C)[nH]c(=S)n2Nc2cccc(C)c2)c1 [Compound 9.35, 2,3-Dihydro-4-methyl-1-(3-methylphenylamino)-5-(3-methoxycarbonylphenyl)-1H-imidazole-2-thione] | 
32 | 165 to 167 °C | Cc1ncn(Nc2ccccc2)c1-c1ccccc1 [Compound 13.05, 4-Methyl-5-phenyl-1-phenylamino-1H-imidazole] | 
33 | 155 °C | Cc1ncn(Nc2ccc(F)cc2)c1-c1ccccc1 [Compound 13.10, 1-(4-Fluorophenylamino)-4-methyl-5-phenyl-1H-imidazole] | 
